Reference: patent US7642244B2, “Neuropeptide-2 receptor (Y-2R) agonists and uses thereof” (Hoffmann-La Roche Inc., priority 2005, dated 2010)
pEC50: −log10 of the molar value. Like-named read-outs stand apart in the source and are kept apart here.

What was measured:
hypothalamic slices = hypothalamic slices in vitro; cited from earlier work
Y1R = target: T1, Y1R (Homo sapiens, UniProt P25929); assay: Calcium flux assay (FLIPR), Y1R; assay type: cell-based
T1 sequence (P25929 1-384): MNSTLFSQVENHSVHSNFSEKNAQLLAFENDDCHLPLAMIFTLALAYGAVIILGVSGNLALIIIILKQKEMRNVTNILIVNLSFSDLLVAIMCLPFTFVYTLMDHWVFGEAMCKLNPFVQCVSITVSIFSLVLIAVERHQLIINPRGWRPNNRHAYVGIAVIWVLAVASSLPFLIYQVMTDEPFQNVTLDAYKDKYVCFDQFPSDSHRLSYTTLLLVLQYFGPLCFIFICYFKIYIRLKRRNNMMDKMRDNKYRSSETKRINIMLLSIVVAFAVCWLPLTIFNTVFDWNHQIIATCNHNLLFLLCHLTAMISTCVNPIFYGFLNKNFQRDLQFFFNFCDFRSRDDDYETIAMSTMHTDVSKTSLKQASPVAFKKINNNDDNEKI
Protocol: (§1) During the incubation, test compounds were prepared at 3.5× the desired concentration in HBSS (20 mM HEPES)/0.05% BSA/1% DMSO and transferred to a 384-well plate for use on FLIPR® (FILPR, Fluorescent Imaging Plate Reader, is a registered trademark of Molecular Devices Corp.).
(§2) After incubation, both the cell and compound plates were brought to the FLIPR® and 20 μL of the diluted compounds were transferred to the cell plates by the FLIPR®. During the assay, fluorescence readings were taken simultaneously from all 384 wells of the cell plate every 1.5 seconds. Five readings were taken to establish a stable baseline, and then 20 μl of sample was rapidly (30 μl/sec) and simultaneously added to each well of the cell plate. The fluorescence was continuously monitored before, during and after sample addition for a total elapsed time of 100 seconds. Responses (increase in peak fluorescence) in each well following addition was determined. The initial fluorescence reading from each well, prior to ligand stimulation, was used as a zero baseline value for the data from that well. The responses were expressed as a percentage of maximal response of the positive control.

Y4R = Y4R (Homo sapiens, UniProt P50391); assay: Calcium flux assay (FLIPR), Y4R; assay type: cell-based
Protocol: as §1, §2

Y5R = target: T2, Y5R (Homo sapiens, UniProt Q15761); assay: Calcium flux assay (FLIPR), Y5R; assay type: cell-based
T2 sequence (Q15761 1-445): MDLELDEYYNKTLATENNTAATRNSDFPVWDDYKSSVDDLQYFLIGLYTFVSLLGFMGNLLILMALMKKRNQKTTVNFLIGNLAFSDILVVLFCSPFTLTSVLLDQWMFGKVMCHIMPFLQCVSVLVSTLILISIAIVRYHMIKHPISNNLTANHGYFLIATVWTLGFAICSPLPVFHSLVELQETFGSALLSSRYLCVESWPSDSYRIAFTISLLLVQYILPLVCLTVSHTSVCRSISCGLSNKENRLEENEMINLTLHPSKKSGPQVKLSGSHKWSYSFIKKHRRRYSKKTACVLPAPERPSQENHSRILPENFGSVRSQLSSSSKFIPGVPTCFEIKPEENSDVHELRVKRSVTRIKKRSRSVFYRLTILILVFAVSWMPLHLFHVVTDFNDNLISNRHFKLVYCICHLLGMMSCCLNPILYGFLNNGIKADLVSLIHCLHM
Protocol: as §1, §2

male DIO rats = details: 5 and 10 mg/kg, q48 hr, s.c., 3-week treatment, male DIO rats (FIG. 23)
Protocol: Male Sprague Dawley rats (7 weeks old) were obtained from Charles River Laboratories (USA) and housed in a temperature and humidity controlled environment with a 12 h light:12 h dark cycle. The rats were given ad libitum access to a high fat chow diet (HFD; 60% of dietary kcal as fat, Research Diets D12492) and water throughout the study. Following 7 weeks on the HFD, rats were sorted by body weight and caged singly.
All data shown are the mean ± standard error (s.e.m.). Statistical evaluation of the data was carried out using one-way ANOVA, followed by Dunnett's test to determine where statistically significant differences existed between vehicle and drug treated groups. Differences were considered statistically significant at P<005. Data analysis was carried out with GraphPad software (GraphPad Prism).

female db/db mice [1] = details: acute, 1 and 10 mg/kg, s.c., 28 hr prior to OGTT, female db/db mice (FIG. 24)
Protocol: Female db/db mice (C57BL/KsJ-Lep^db/db, Jackson Laboratories, USA) were at 6 weeks of age when received. The mice were housed in a temperature and humidity controlled environment with a 12 h light: 12 h dark cycle, and given access to food (Purina rodent chow 5008) and water ad libitum. The mice (12-weeks old) were pre-bled 4 days prior to study, and those within a narrow range of fasted blood glucose levels were selected for the study in order to minimize variability between vehicle control and drug-treated groups. […] Blood samples were collected from tail clips following a 6 hr fast for determination of baseline values (t=0 min). The mice were then gavaged with an oral bolus of glucose (1 g/kg), and additional blood samples were collected at regular intervals (t=30, 60 and 120 min) for glucose measurement. […] The area under the curve (AUC0-120 min) was determined using the trapezoid method.
All data shown are the mean ± standard deviation (s.d.). Statistical evaluation of the data was carried out using one-way ANOVA, followed by Dunnett's test to determine where statistically significant differences existed between vehicle and drug treated groups. […] Data analysis was carried out with GraphPad software (GraphPad Prism).

female db/db mice [2] = details: q48 hr, s.c.
Protocol: Female db/db mice (C57BL/KsJ-Lep^db/db, Jackson Laboratories, USA) were at 6 weeks of age when received. The mice were housed in a temperature and humidity controlled environment with a 12 h light: 12 h dark cycle, and given access to food (Purina rodent chow 5008) and water ad libitum. The mice (9 week old) were pre-bled 4 days prior to drug treatment, and those within a narrow range of fasted blood glucose levels were selected for the study in order to minimize variability between vehicle control and drug-treated groups. […] Basal fasting (2 to 6 hr) blood glucose measurements were conducted weekly. On study day 20, an oral glucose tolerance test was performed following a 6 hr fast. Blood samples were collected from tail clips for determination of baseline values (t=0 min). The mice were then gavaged with an oral bolus of glucose (1 g/kg), and additional blood samples were collected at regular intervals (t=30, 60, and 120 min) for glucose measurement. […] The area under the curve (AUC0-120 min) was determined using the trapezoid method.
All data shown are the mean ± standard deviation (s.d.). Statistical evaluation of the data was carried out using one-way ANOVA, followed by Dunnett's test to determine where statistically significant differences existed between vehicle and drug treated groups. Differences were considered statistically significant at P<0.05. […]

Chain of Y4R (P50391 whole entry): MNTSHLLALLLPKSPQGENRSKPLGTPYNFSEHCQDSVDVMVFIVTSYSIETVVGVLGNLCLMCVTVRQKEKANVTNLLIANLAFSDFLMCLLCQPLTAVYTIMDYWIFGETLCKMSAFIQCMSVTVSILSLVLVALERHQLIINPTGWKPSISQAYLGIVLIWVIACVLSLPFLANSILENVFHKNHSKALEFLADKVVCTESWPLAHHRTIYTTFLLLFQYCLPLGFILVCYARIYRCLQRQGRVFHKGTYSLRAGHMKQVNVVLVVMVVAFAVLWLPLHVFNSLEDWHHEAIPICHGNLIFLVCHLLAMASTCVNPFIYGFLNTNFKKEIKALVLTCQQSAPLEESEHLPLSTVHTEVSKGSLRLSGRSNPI

Compound | pEC50 (Y1R) | pEC50 (Y4R) | pEC50 (Y5R) | further results
N=C(N)NCCC[C@H](NC(=O)CC1(CC(=O)N2CCN(C3c4ccccc4NC(=O)c4ccccc43)CC2)CCCC1)C(=O)NCCn1c(=O)n(-c2ccccc2)n(-c2ccccc2)c1=O (stereo partly shown) [BIIE0246] |  |  |  | NPY release (hypothalamic slices): increases NPY release
CC[C@H](C)[C@H](N)C(=O)N[C@@H](CCCCN)C(=O)N1CCN(c2ccc3ncn(CC(=O)N[C@@H](CCCNC(=N)N)C(=O)N[C@@H](Cc4c[nH]cn4)C(=O)N[C@@H](Cc4ccc(O)cc4)C(=O)N[C@@H](CC(C)C)C(=O)N[C@@H](CC(N)=O)C(=O)N[C@@H](Cc4c[nH]c5ccccc45)C(=O)N[C@H](C(=O)N[C@H](C(=O)N[C@@H](CCCNC(=N)N)C(=O)N[C@@H](CCC(N)=O)C(=O)N(C)[C@@H](CCCNC(=N)N)C(=O)N[C@@H](Cc4ccc(O)cc4)C(N)=O)[C@@H](C)O)C(C)C)c(=O)c3c2)CC1 [Example 25] | 6.53 | < 5.30 | < 5.30 | 
CCCC[C@H](NC(=O)[C@@H](N)[C@@H](C)CC)C(=O)N1CCN(c2ccc3ncn(CC(=O)N[C@@H](CCCNC(=N)N)C(=O)N[C@@H](Cc4c[nH]cn4)C(=O)N[C@@H](Cc4ccc(O)cc4)C(=O)N[C@@H](CC(C)C)C(=O)N[C@@H](CC(N)=O)C(=O)N[C@@H](Cc4c[nH]c5ccccc45)C(=O)N[C@H](C(=O)N[C@H](C(=O)N[C@@H](CCCNC(=N)N)C(=O)N[C@@H](CCC(N)=O)C(=O)N(C)[C@@H](CCCNC(=N)N)C(=O)N[C@@H](Cc4ccc(O)cc4)C(N)=O)[C@@H](C)O)C(C)C)c(=O)c3c2)CC1 [Example 26] | < 5.30 | < 5.30 | < 5.30 | 
CC[C@H](C)[C@H](NC(C)=O)C(=O)N[C@@H](CCCCN)C(=O)N1CCN(c2ccc3ncn(CC(=O)N[C@@H](CCCNC(=N)N)C(=O)N[C@@H](Cc4c[nH]cn4)C(=O)N[C@@H](Cc4ccc(O)cc4)C(=O)N[C@@H](CC(C)C)C(=O)N[C@@H](CC(N)=O)C(=O)N[C@@H](Cc4c[nH]c5ccccc45)C(=O)N[C@H](C(=O)N[C@H](C(=O)N[C@@H](CCCNC(=N)N)C(=O)N[C@@H](CCC(N)=O)C(=O)N(C)[C@@H](CCCNC(=N)N)C(=O)N[C@@H](Cc4c(F)cc(O)cc4F)C(N)=O)[C@@H](C)O)C(C)C)c(=O)c3c2)CC1 [Example 27] | < 5.30 | < 5.30 |  | 
CCCCC(=O)N[C@H](C(=O)N[C@@H](CCCCN)C(=O)N1CCN(c2ccc3ncn(CC(=O)N[C@@H](CCCNC(=N)N)C(=O)N[C@@H](Cc4c[nH]cn4)C(=O)N[C@@H](Cc4ccc(O)cc4)C(=O)N[C@@H](CC(C)C)C(=O)N[C@@H](CC(N)=O)C(=O)N[C@@H](Cc4c[nH]c5ccccc45)C(=O)N[C@H](C(=O)N[C@H](C(=O)N[C@@H](CCCNC(=N)N)C(=O)N[C@@H](CCC(N)=O)C(=O)N(C)[C@@H](CCCNC(=N)N)C(=O)N[C@@H](Cc4ccc(O)cc4)C(N)=O)[C@@H](C)O)C(C)C)c(=O)c3c2)CC1)[C@@H](C)CC [Example 29] | < 5.30 | < 5.30 | < 5.30 | 
CC[C@H](C)[C@H](NC(=O)C(C)(C)C)C(=O)N[C@@H](CCCCN)C(=O)N1CCN(c2ccc3ncn(CC(=O)N[C@@H](CCCNC(=N)N)C(=O)N[C@@H](Cc4c[nH]cn4)C(=O)N[C@@H](Cc4ccc(O)cc4)C(=O)N[C@@H](CC(C)C)C(=O)N[C@@H](CC(N)=O)C(=O)N[C@@H](Cc4c[nH]c5ccccc45)C(=O)N[C@H](C(=O)N[C@H](C(=O)N[C@@H](CCCNC(=N)N)C(=O)N[C@@H](CCC(N)=O)C(=O)N(C)[C@@H](CCCNC(=N)N)C(=O)N[C@@H](Cc4ccc(O)cc4)C(N)=O)[C@@H](C)O)C(C)C)c(=O)c3c2)CC1 [Example 30] | < 5.30 | < 5.30 | < 5.30 | 
CC[C@H](C)[C@H](NC(=O)CC1CCCCC1)C(=O)N[C@@H](CCCCN)C(=O)N1CCN(c2ccc3ncn(CC(=O)N[C@@H](CCCNC(=N)N)C(=O)N[C@@H](Cc4c[nH]cn4)C(=O)N[C@@H](Cc4ccc(O)cc4)C(=O)N[C@@H](CC(C)C)C(=O)N[C@@H](CC(N)=O)C(=O)N[C@@H](Cc4c[nH]c5ccccc45)C(=O)N[C@H](C(=O)N[C@H](C(=O)N[C@@H](CCCNC(=N)N)C(=O)N[C@@H](CCC(N)=O)C(=O)N(C)[C@@H](CCCNC(=N)N)C(=O)N[C@@H](Cc4ccc(O)cc4)C(N)=O)[C@@H](C)O)C(C)C)c(=O)c3c2)CC1 [Example 31] | < 5.30 | < 5.30 | < 5.30 | 
CC[C@H](C)[C@H](NC(=O)c1ccccc1)C(=O)N[C@@H](CCCCN)C(=O)N1CCN(c2ccc3ncn(CC(=O)N[C@@H](CCCNC(=N)N)C(=O)N[C@@H](Cc4c[nH]cn4)C(=O)N[C@@H](Cc4ccc(O)cc4)C(=O)N[C@@H](CC(C)C)C(=O)N[C@@H](CC(N)=O)C(=O)N[C@@H](Cc4c[nH]c5ccccc45)C(=O)N[C@H](C(=O)N[C@H](C(=O)N[C@@H](CCCNC(=N)N)C(=O)N[C@@H](CCC(N)=O)C(=O)N(C)[C@@H](CCCNC(=N)N)C(=O)N[C@@H](Cc4ccc(O)cc4)C(N)=O)[C@@H](C)O)C(C)C)c(=O)c3c2)CC1 [Example 32] | < 5.30 | < 5.30 | < 5.30 | 
Ile((PEG-30,000)CH2CH2NHCOCH2CH2CO)(ε)Lys-Pqa-Arg-His-Tyr-Leu-Asn-Trp-Val-Thr-Arg-Gln-(NMe)Arg-Tyr-NH2 [Example 41] |  |  |  | body weight gain versus vehicle-treated animals (male DIO rats): significant decrease in body weight gain; glucose excursion in response to an oral glucose challenge (female db/db mice [1]): significantly decreased glucose excursion; basal blood glucose levels versus vehicle-treated animals (female db/db mice [2]; 1, 3 and 10 mg/kg, day 8, 15 and 21, female db/db mice (FIG. 25A)): reduced basal blood glucose levels; glucose excursion in response to an oral glucose challenge (female db/db mice [2]; day 20, 3 and 10 mg/kg, female db/db mice (FIG. 25B)): significantly decreased glucose excursion
